Results published in PMC4945415 (Journal of medicinal chemistry, 2016).
Where two headings read alike, the source gives them in different places. Marks after values point to notes of the source that are not given here.

How the values were obtained:
[1] = system: β-hematin (βH) formation; assay: NP-40 detergent mediated β-hematin inhibition assay; assay type: biochemical; settings: read-out: βH inhibition IC50; NP-40 assay
[2] = Association constant with Fe; assay type: binding; settings: for logK (association constant with Fe(III)PPIX): 1:1 complex, 7.5 μM hematin, 40% v/v DMSO, pH 7.5; for Binding constant ratio relative to 12c (K/K12c): from logK values
[3] = system: NF54 strain of P. falciparum; assay: Parasite growth inhibition, CQ-sensitive NF54 strain; assay type: cell-based, Plasmodium falciparum
[4] = system: D10 strain of P. falciparum; assay: Parasite growth inhibition, CQ-sensitive D10 strain; assay type: cell-based, Plasmodium falciparum
[5] = In vitro metabolic stability, mouse liver microsomes
[6] = system: K1 CQ-resistant strain; settings: read-out: K1 parasite IC50
[7] = In vitro metabolic stability, human liver microsomes
[8] = Kinetic solubility; settings: for Kinetic solubility FaSSIF / Kinetic solubility pH 6.5: pH 6.5
[9] = system: Chinese hamster ovarian (CHO) cell line; settings: read-out: CHO IC50
[10] = In vitro metabolic stability, rat liver microsomes
[11] = system: parasitized erythrocyte, CQ-sensitive D10 strain; assay: Inoculum effect measurement of cellular accumulation; assay type: cell-based, Plasmodium falciparum; settings: IC50 vs initial parasitemia
[12] = 1:1 complex, 40% DMSO; cited from earlier work
[13] = system: D6 strain of P. falciparum; settings: read-out: parasite activity against the D6 strain, HTS; cited from earlier work
[14] = read-out: NF54 parasite IC50, CQ-sensitive NF54 strain
[15] = read-out: D10 parasite IC50, CQ-sensitive D10 strain

With “5-Methyl-N,N-di(pyridin-4-yl)isophthalamide [Compound 15f]” as the compound, how does the IC50 [1] read?
Its IC50 is 8 ± 1 µM.

And the “logK (association constant with Fe(III)PPIX)” value (“logK” below) [2]?
The value was 3.92 ± 0.21.

What about the “Binding constant ratio relative to 12c (K/K12c)” value [2] of the same compound?
The value was 5.24.

And the IC50 [3, 14]?
Its IC50 is 2.5 ± 0.6 µM.

With “5-Cyano-N,N-di(pyridin-4-yl)isophthalamide [Compound 15d]” as the compound, how does the IC50 [4, 15] read?
The IC50 was 2 ± 0.2 µM.

What about the IC50 [1] of the same compound?
The IC50 was 6.34 ± 0.09 µM.

And the IC50 [3, 14]?
The IC50 was 1.9 ± 0.2 µM.

Which results are given for “5-Nitro-N,N-diphenylisophthalamide [Compound 15c]”?
IC50 [1]: 7 ± 0.2 µM; IC50 [3, 14]: 1.4 ± 0.2 µM

Which IC50 [4, 15] does the source give for “5-(tert-Butyl)-N,N-di(pyridin-3-yl)isophthalamide [Compound 15i]” here?
The IC50 was 0.7 ± 0.1 µM.

And the Degradation half-life [5]?
Its Degradation half-life is 0.873 h.

What about the “Hepatic extraction (EH)” value [5] of the same compound?
The value was 0.6.

What about the In vitro clearance [5] of the same compound?
The In vitro clearance was 130.3 μL/min/mg protein.

And the IC50 [1]?
Its IC50 is 6.8 ± 0.1 µM.

What about the IC50 [6] of the same compound?
The IC50 was 1.7 ± 0.4 µM.

And the Degradation half-life [7]?
Its Degradation half-life is 2.365 h.

What about the “Hepatic extraction (EH)” value [7] of the same compound?
The value was 0.4.

And the In vitro clearance [7]?
Its In vitro clearance is 14.1 μL/min/mg protein.

And the “Kinetic solubility FaSSIF” value [8]?
The value was 153.6 µM.

And the “Kinetic solubility pH 2” value [8]?
The value was 197.2 μM.

And the “Kinetic solubility pH 6.5” value [8]?
The value was 92.7 μM.

What about the IC50 [9] of the same compound?
Its IC50 is 185 µM.

And the IC50 [3, 14]?
Its IC50 is 0.6 ± 0.1 µM.

What about the Degradation half-life [10] of the same compound?
Its Degradation half-life is 1.55 h.

What about the “Hepatic extraction (EH)” value [10] of the same compound?
The value was 0.4.

And the In vitro clearance [10]?
The In vitro clearance was 33.5 μL/min/mg protein.

What does the source list for “N,N-bis(4-((Dimethylamino)methyl)phenyl)-5-nitroisophthalamide [Compound 17]”?
inoculum effect / cellular accumulation [11]: insignificant inoculum effect; IC50 [1]: 7.9 ± 0.2 µM; IC50 [3, 14]: 1.5 ± 0.2 µM

With `CCN(CC)CCCC(C)Nc1ccnc2cc(Cl)ccc12` (stereo not shown) [CQ, chloroquine, reference compound] as the compound, how does the IC50 ([4]; Plasmodium falciparum, D10, read-out: D10 parasite IC50) read?
The IC50 was 0.021 ± 0.002 µM.

And the “logK” value [12]?
Its value is 5.52 ± 0.03 ^a.

What about the IC50 ([3]; Plasmodium falciparum, NF54, read-out: NF54 parasite IC50) of the same compound?
Its IC50 is 0.008 ± 0.002 µM.

Which IC50 [1] does the source give for “N,N-Di(pyridin-4-yl)isophthalamide [Compound 15k]” here?
The IC50 was 507 ± 33 µM.

What about the IC50 [3, 14] of the same compound?
Its IC50 is 9 ± 4 µM.

What does the source list for “5-Nitro-N,N-di(pyridin-3-yl)isophthalamide [Compound 15b]”?
IC50 [1]: 4.7 ± 0.7 µM; IC50 [3, 14]: 1.32 ± 0.04 µM

For `O=C(Nc1ccccc1)c1cc(C(=O)Nc2nc3ccccc3[nH]2)cc([N+](=O)[O-])c1` [Compound 18, N^1-(1H-Benzo[d]imidazol-2-yl)-5-nitro-N^3-phenylisophthalamide], which IC50 ([3]; Plasmodium falciparum, NF54, read-out: parasite activity (maximum dose concentration)) is on record?
The IC50 was > 249 µM.

For “5-Methyl-N,N-diphenylisophthalamide [Compound 15g]”, which IC50 [1] is on record?
The IC50 was > 1000 µM.

What about the IC50 [3, 14] of the same compound?
Its IC50 is 146 ± 1 µM.

What does the source list for “5-(tert-Butyl)-N,N-diphenylisophthalamide [Compound 15j]”?
IC50 [1]: > 1000 µM; IC50 [3, 14]: 8.1 ± 0.5 µM

For “5-Cyano-N,N-diphenylisophthalamide [Compound 15e]”, which IC50 [4, 15] is on record?
The IC50 was 5.2 µM.

What about the IC50 [1] of the same compound?
The IC50 was 4.4 ± 0.2 µM.

What does the source list for “N,N-Di(pyridin-4-yl)pyridine-2,6-dicarboxamide [Compound 15o]”?
IC50 [1]: 260 ± 7 µM; IC50 [3, 14]: > 315 µM

With “5-(tert-Butyl)-N,N-di(pyridin-4-yl)isophthalamide [Compound 15h]” as the compound, how does the IC50 [1] read?
The IC50 was 13.3 ± 0.7 µM.

And the IC50 [3, 14]?
The IC50 was 1.6 ± 0.2 µM.

For “5-Methoxy-N,N-di(pyridin-4-yl)isophthalamide [Compound 15m]”, which IC50 [1] is on record?
Its IC50 is 22 ± 1 µM.

And the IC50 [3, 14]?
Its IC50 is 3 ± 0.5 µM.

With `O=C(Nc1ccncc1)c1cc([N+](=O)[O-])cc([N+](=O)[O-])c1` [Compound 12c, 3,5-Dinitro-N-(pyridin-4-yl)benzamide] as the compound, how does the “logK” value [2] read?
Its value is 3.20 ± 0.36.

And the “Binding constant ratio relative to 12c (K/K12c)” value [2]?
The value was 1.

Which IC50 [1] does the source give for “N,N-Diphenylpyridine-2,6-dicarboxamide [Compound 15p]” here?
Its IC50 is > 1000 µM.

And the IC50 [3, 14]?
The IC50 was > 315 µM.

Which IC50 [1] does the source give for “5-Methoxy-N,N-diphenylisophthalamide [Compound 15n]” here?
Its IC50 is > 1000 µM.

What about the IC50 [3, 14] of the same compound?
The IC50 was 37 ± 13 µM.

What does the source list for “5-Nitro-N,N-di(pyridin-4-yl)isophthalamide [Compound 15a]”?
IC50 [4, 15]: 0.9 ± 0.1 µM; Degradation half-life [5]: >2.5 h; Hepatic extraction (EH) [5]: <0.33; In vitro clearance [5]: <11.6 μL/min/mg protein; inoculum effect / cellular accumulation [11]: larger accumulation ratios; IC50 [1]: 4.3 ± 0.1 µM; Degradation half-life [7]: >2.5 h; Hepatic extraction (EH) [7]: <0.42; In vitro clearance [7]: <11.6 μL/min/mg protein; IC50 [13]: 0.19 µM; Kinetic solubility FaSSIF [8]: 13 µM; Kinetic solubility pH 2 [8]: 199.7 μM; Kinetic solubility pH 6.5 [8]: < 5 μM; IC50 [9]: > 275 µM; IC50 [3, 14]: 0.7 ± 0.2 µM; Degradation half-life [10]: >2.5 h; Hepatic extraction (EH) [10]: <0.30; In vitro clearance [10]: <11.6 μL/min/mg protein
